Measured values: patent publication US20230200390A1, “SELECTIVE HERBICIDES BASED ON SUBSTITUTED ISOXAZOLIN CARBOXAMIDES AND MEFENPYR-DIETHYL” (BAYER AKTIENGESELLSCHAFT, priority 2020, published 2023)

What was measured:
Type in all cases: in vivo
[1] = tested on: spring wheat, TRZAS Triso; experiment: Treatment 1 day before: safener applied one day before herbicide, crop damage; conditions: 21 DAT; for HER effect + SAF / Reduction [%] / Reduction [Difference]: mefenpyr-diethyl 50 g a.i./ha 1 day before
From the text: (§1) Seeds of crops (spring wheat, TRZAS; spring barley, HORVS; maize, ZEAMA) were placed in sandy loam soil in pots of a diameter of 7-8 cm, covered with soil, and cultivated in a greenhouse under good growth conditions until plants were at the 1-3 leaf stage (BBCH 11-13). For split safener and herbicide treatment, first the safener was applied followed by the herbicide treatment on the following day. The safener and herbicides were formulated as WP and sprayed onto the green parts of the plants as an aqueous suspension at an equivalent water application rate of 300 l/ha, with addition of wetting agent and adjuvants (e.g. Mero, 1.5 l/ha; ammonium sulphate, 2 kg/ha). An equivalent set of plants was treated with the herbicides but without the prior safener treatment.
(§2) After application, the test plants were kept in the greenhouse under good growth conditions. 10 and 21 days after treatment (DAT) with the herbicide, % crop damage observed on the treated plants was scored visually in comparison to control plants that had not received any safener or herbicide treatment.

[2] = tested on: spring barley, HORVS Montoya; experiment: as above; conditions: 21 DAT; for HER effect + SAF / Reduction [%] / Reduction [Difference]: mefenpyr-diethyl 50 g a.i./ha 1 day before
From the text: as §1, §2

[3] = tested on: spring wheat, TRZAS Triso; experiment: Tank-mix; post-emergence: crop damage by herbicide with/without safener mefenpyr-diethyl; conditions: 10 DAT
Procedure, shortened: (§3)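 Visual percent crop damage (0–100 relative to untreated plants) assessed 1–3 weeks post-application. Plants in sandy loam were sprayed at the 1–3-leaf stage with herbicide with or without safener at several rates, water volume 300 l/ha.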

[4] = tested on: spring barley, HORVS Montoya; experiment: as above; conditions: 21 DAT
Procedure, shortened: as §3

[5] = tested on: spring wheat, TRZAS Triso; experiment: Seed treatment with safener; post-emergence herbicide, crop damage; conditions: 21 DAT; for HER effect + SAF [%] (crop damage) / Reduction [%] / Reduction [Difference]: mefenpyr-diethyl 0.5 g a.i./kg seed; for HER effect [%] (crop damage, herbicide without safener): no safener
Procedure, shortened: (§4)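 Crop injury was rated visually in % at 10 and 21 days after post-emergence spraying at the 2-leaf stage. The herbicide was a WP in 300 l/ha water plus 1 l/ha MERO. Plants grew from seed either safener-coated at stated g a.i./kg rates via a milk-diluted slurry, or untreated.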

[6] = tested on: spring barley, HORVS Montoya; experiment: as above; conditions: 21 DAT; for HER effect + SAF / Reduction [%] / Reduction [Difference]: mefenpyr-diethyl 0.5 g a.i./kg seed
Procedure, shortened: as §4

[7] = HER 2 g a.i./ha + mefenpyr-diethyl 50 g a.i./ha
[8] = HER 32 g a.i./ha post-emergence

CC1(C(=O)NC2C=CC(C(=O)N3CCCCO3)C2)CC(c2cc(F)cc(F)c2)=NO1 (mixture of isomers) [Example 1.46]
HER effect + SAF ([1]; HER 100 g a.i./ha): 5% | Reduction [%] ([1]; HER 100 g a.i./ha): 92% | Reduction [Difference] ([1]; HER 100 g a.i./ha): 55 | HER effect + SAF ([1]; HER 200 g a.i./ha): 5% | Reduction [%] ([1]; HER 200 g a.i./ha): 94% | Reduction [Difference] ([1]; HER 200 g a.i./ha): 75 | HER effect ([1]; herbicide alone 100 g a.i./ha): 60% | HER effect ([1]; herbicide alone 200 g a.i./ha): 80% | HER effect + SAF ([2]; HER 25 g a.i./ha): 10% | Reduction [%] ([2]; HER 25 g a.i./ha): 78% | Reduction [Difference] ([2]; HER 25 g a.i./ha): 35 | HER effect + SAF ([2]; HER 50 g a.i./ha): 20% | Reduction [%] ([2]; HER 50 g a.i./ha): 69% | Reduction [Difference] ([2]; HER 50 g a.i./ha): 45 | HER effect ([2]; herbicide alone 25 g a.i./ha): 45% | HER effect ([2]; herbicide alone 50 g a.i./ha): 65%

COCCOC(=O)C1C=CC(NC(=O)C2(C)CC(c3cc(Cl)cc(C#N)c3)=NO2)C1 (stereo not shown) [Example 1.5]
HER effect + SAF [3, 7]: 0% | Reduction [%] [3, 7]: 100% | Reduction [Difference] [3, 7]: 50 | HER effect ([3]; herbicide alone 2 g a.i./ha): 50% | HER effect + SAF [4, 7]: 0% | Reduction [%] [4, 7]: 100% | Reduction [Difference] [4, 7]: 20 | HER effect ([4]; herbicide alone 2 g a.i./ha): 20% | HER effect + SAF [%] (crop damage) ([5]; HER dose 8 g a.i./ha): 10% | Reduction [%] ([5]; HER dose 8 g a.i./ha): 89% | Reduction [Difference] ([5]; HER dose 8 g a.i./ha): 80 | HER effect [%] (crop damage, herbicide without safener) ([5]; HER dose 8 g a.i./ha): 90% | HER effect + SAF [%] (crop damage) ([5]; HER dose 32 g a.i./ha): 30% | Reduction [%] ([5]; HER dose 32 g a.i./ha): 68% | Reduction [Difference] ([5]; HER dose 32 g a.i./ha): 65 | HER effect [%] (crop damage, herbicide without safener) ([5]; HER dose 32 g a.i./ha): 95% | HER effect + SAF ([6]; HER 2 g a.i./ha post-emergence): 0% | Reduction [%] ([6]; HER 2 g a.i./ha post-emergence): 100% | Reduction [Difference] ([6]; HER 2 g a.i./ha post-emergence): 20 | HER effect + SAF [6, 8]: 60% | Reduction [%] [6, 8]: 25% | Reduction [Difference] [6, 8]: 20 | HER effect ([6]; herbicide alone 2 g a.i./ha post-emergence): 20% | HER effect ([6]; herbicide alone 32 g a.i./ha post-emergence): 80%
